We go through 28 compounds from patent US20260308159A1, “BICYCLIC HETEROARYLAMIDES HAVING GPR68 MODULATING ACTIVITY” (RECURSION PHARMACEUTICALS, INC., priority 2023, published 2026).

Where only a bound is given, the exact number is not on record here.

In the assay the target is T1, human GPR68 (Homo sapiens, UniProt Q15743).
T1 construct: encoding full-length human GPR68 (uniprot ID: Q15743); expressed in transfected cells; host or cells: HEK293T
Kind of assay: GPR68 Biochemical Assay (Promega GloSensor cAMP assay, GPR68 antagonism). It is filed as cell-based. The settings on record: HEK293T cells transiently expressing hGPR68, antagonism of pH 5.5 stimulated cAMP, 15 min, read-out: hGPR68 IC50. The protocol: GPR68 antagonism was determined using the Promega GloSensor™ CAMP assay (F. I. Wang et al., Methods 2021, S1046-2023 (21) 00249-8). HEK293T cells (obtained from ECACC, Cat 12022001, Lot no. 17E044) were cultured in T175 flasks (Greiner, Cat 660175) in DMEM (Gibco, Cat 11995-065) supplemented with 10% Fetal Bovine Serum (Gibco Cat 16000-044), and 100 u/mL Pen-Strep (Gibco, Cat 15140) at 37° C. and 5% CO2. GPR68 expression was achieved by transient transfection with a mammalian expression plasmid encoding full-length human GPR68 (uniprot ID: Q15743) under control of a CMV promoter. The day before transfection, cell media was aspirated and HEK293T cells were incubated with accutase (Sigma, Cat A6964) for 3-4 minutes 37° C. and 5% CO2 before being manually detached with excess DMEM and trituration. Cell density was determined by automated cell counting (Countess, Invitrogen) and adjusted to 6×10^6 cells/20 mL and transferred to 15 cm dishes (Thermo Fisher, Cat 130183) for overnight incubation at 37° C. and 5% CO2. The next day separate mammalian expression plasmids encoding hGPR68 (4 μg) and Promega GloSensor (8 μg) were diluted to 1 mL in Opti-MEM (Thermo Fisher Scientific, Cat 31985070) and incubated with 30 μL of lipofectamine 3000 (also diluted to 1 mL in Opti-MEM) for 15 minutes at room temperature and subsequently added dropwise to the plated cells. Post transfection cells were then incubated at 37° C. and 5% CO2 for at least 16 hours before transfer to assay plates the following day. Transfer was conducted by washing cells with PBS and incubating with accutase for 3-4 minutes 37° C. and 5% CO2 before being manually detached with excess DMEM and mild trituration. The suspension was then centrifuged at 192 RCF for 4 minutes in a 50 mL centrifuge tube (Greiner, Cat 227261).
Supernatant was removed by aspiration and the cell pellet was resuspended in DMEM+1% dialysed FBS (Gibco, Cat 26400-044) and 100 u/mL Pen-Strep to a cell density of 500 cells/μL. Cells were plated into poly-L-Lysine coated 384-well white assay plates (Corning, Cat 3570) at a final volume of 40 µL and a density of 20,000 cells/well before overnight incubation at 37° C. and 5% CO2. The following day media was manually ejected from the 384-well assay plate and replaced with 10 μL GloSensor substrate (Promega, Cat E1291) prepared in pH 8.0 assay buffer (1×HBSS, 10 mM HEPES, 10 mM MOPS). Cells were incubated with this solution for 60 minutes at room temperature in the dark. Test compounds or an equivalent volume of DMSO (vehicle) were added to compounds plates to create a 9-point, half-log concentration series for each compound with a maximum final assay concentration of 50 μM and a consistent final DMSO concentration of 0.5%. Assay buffer with 0.1% BSA and 0.01% ascorbic acid was prepared at three pHs: pH 8.0, pH 5.5 and pH 4.5. pH 8.0 and 4.5 were added to the compound plate as maximum and minimum effect controls whilst pH 5.5 was added to all compound wells to stimulate GPR68 to a level corresponding to […] of maximal stimulation after addition to the cells already in pH 8.0 (assay acceptance criteria range 70-90%). DMSO/Compound and buffer was added to the plated cells containing the GloSensor substrate and incubated for 15 minutes at room temperature before being read on a microplate reader (BMG PHERAstar, optic module LUM Plus with Gain 3600). Data was exported and analysed in excel and Graphpad prism (version 9). Assay QC acceptance criteria required the maximum and minimum controls to return a Z′≥0.5, the EC80 to be 80%±10% of expected and the reference ligand pIC50 to be within one-half-log unit of its historical IC50. Percent inhibition was calculated using the mean EC80 (pH 5.5) and mean minimum effect control (pH 8.0). Data were plotted as percentage inhibition, average±SEM. IC50, Emax, Emin, Actual max, actual min, R^2 and fit confidence were calculated using Graphpad Prism's sigmoidal dose-response function.
A general note: cAMP levels reflect the balance of adenylyl cyclase and phosphodiesterase activity.

T1 sequence (Q15743 whole entry): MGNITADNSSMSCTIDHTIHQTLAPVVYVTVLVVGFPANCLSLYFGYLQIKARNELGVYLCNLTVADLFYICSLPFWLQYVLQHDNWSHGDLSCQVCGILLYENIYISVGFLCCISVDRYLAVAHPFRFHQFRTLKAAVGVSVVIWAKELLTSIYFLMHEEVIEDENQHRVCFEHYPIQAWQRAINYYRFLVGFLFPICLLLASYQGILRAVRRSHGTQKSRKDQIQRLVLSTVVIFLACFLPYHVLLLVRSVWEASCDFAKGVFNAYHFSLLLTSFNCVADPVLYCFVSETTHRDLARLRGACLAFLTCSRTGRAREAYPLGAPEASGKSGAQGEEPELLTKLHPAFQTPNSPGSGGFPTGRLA

Usually IC50 stands for the concentration needed to halve the response being measured. As for `COCc1nn2c(C(=O)NC3CCC(F)(F)CC3F)ccnc2c1C(N)=O` (mixture of isomers) [Compound 154, 2-(methoxymethyl)-N7-(2,4,4-trifluorocyclohexyl)pyrazolo[1,5-a]pyrimidine-3,7-dicarboxamide], the IC50 was 0.05 to 0.5 µM.

Regarding `COCc1nn2c(C(=O)N[C@@H]3Cc4ccccc4[C@@H]3O)ccnc2c1C(N)=O` (relative stereo) [Compound 200, N7-(cis-1-hydroxyindan-2-yl)-2-(methoxymethyl)pyrazolo[1,5-a]pyrimidine-3,7-dicarboxamide], the concentration for half-maximal inhibition (IC50) was less than 0.05 µM.

On to `COCc1nn2c(C(=O)NC3Cc4cccnc4C3)ccnc2c1C(N)=O` (single isomer, unassigned) [Compound 146, N7-(6,7-dihydro-5H-cyclopenta[b]pyridin-6-yl)-2-(methoxymethyl)pyrazolo[1,5-a]pyrimidine-3,7-dicarboxamide], for which the IC50 fell in the range of 0.05 to 0.5 µM.

Consider `COCc1nn2c(C(=O)NC3Cc4cccnc4C3)ccnc2c1C(N)=O` (single isomer, unassigned) [Compound 147, N7-(6,7-dihydro-5H-cyclopenta[b]pyridin-6-yl)-2-(methoxymethyl)pyrazolo[1,5-a]pyrimidine-3,7-dicarboxamide], for which the IC50 is less than 0.05 µM.

Take `COCc1nn2c(C(=O)NC3CC(F)(F)c4ccccc43)ccnc2c1C(N)=O` (single isomer, unassigned) [Compound 173, N7-(3,3-difluoroindan-1-yl)-2-(methoxymethyl)pyrazolo[1,5-a]pyrimidine-3,7-dicarboxamide]: the IC50 was less than 0.05 µM.

Regarding `COCc1nn2c(C(=O)NC3CC(F)(F)c4ccccc43)ccnc2c1C(N)=O` (single isomer, unassigned) [Compound 174, N7-(3,3-difluoroindan-1-yl)-2-(methoxymethyl)pyrazolo[1,5-a]pyrimidine-3,7-dicarboxamide], the 50% inhibitory concentration (IC50) was less than 0.05 µM.

Consider `COCc1nn2c(C(=O)NC3CCC(F)(F)c4ccccc43)ccnc2c1C(N)=O` (single isomer, unassigned) [Compound 175, N7-[-4,4-difluorotetralin-1-yl]-2-(methoxymethyl)pyrazolo[1,5-a]pyrimidine-3,7-dicarboxamide], for which the concentration for half-maximal inhibition (IC50) was less than 0.05 µM.

For `COCc1nn2c(C(=O)N[C@H]3CCS(=O)(=O)c4ccccc43)ccnc2c1C(N)=O` (single isomer, unassigned) [Compound 234], the IC50 was less than 0.05 µM.

Take `NC(=O)c1cnn2c(C(=O)NC3Cc4ccccc4C3)ccnc12` [Compound 1, N7-indan-2-ylpyrazolo[1,5-a]pyrimidine-3,7-dicarboxamide]: the IC50 is 0.05 to 0.5 µM.

Consider `Cc1cccc2c1CC(NC(=O)c1ccnc3c(C(N)=O)cnn13)C2` (stereo not shown) [Compound 2, N7-(4-methylindan-2-yl)pyrazolo[1,5-a]pyrimidine-3,7-dicarboxamide], for which the IC50 is 0.05 to 0.5 µM.

`COc1ccc2c(c1)CC(NC(=O)c1ccnc3c(C(N)=O)cnn13)C2` (stereo not shown) [Compound 3, N7-(5-methoxyindan-2-yl)pyrazolo[1,5-a]pyrimidine-3,7-dicarboxamide]: the IC50 fell in the range of 50 to 100 µM.

For the compound `NC(=O)c1cnn2c(C(=O)NC3Cc4cccc(Cl)c4C3)ccnc12` (stereo not shown) [Compound 4, N7-(4-chloroindan-2-yl)pyrazolo[1,5-a]pyrimidine-3,7-dicarboxamide], the IC50 fell in the range of 0.05 to 0.5 µM.

Take `NC(=O)c1cnn2c(C(=O)NC3CNc4ccccc4C3)ccnc12` (stereo not shown) [Compound 5, N7-(1,2,3,4-tetrahydroquinolin-3-yl)pyrazolo[1,5-a]pyrimidine-3,7-dicarboxamide]: the IC50 was in the range of 0.5 to 5 µM.

Consider `NC(=O)c1cnn2c(C(=O)NC3COc4ccccc4C3)ccnc12` (stereo not shown) [Compound 6, N7-chroman-3-ylpyrazolo[1,5-a]pyrimidine-3,7-dicarboxamide], for which the IC50 lay in the range of 0.05 to 0.5 µM.

On to `C[C@]1(F)C[C@H](NC(=O)c2ccnc3c(C(N)=O)cnn23)C1` [Compound 7, N7-(trans-3-fluoro-3-methyl-cyclobutyl)pyrazolo[1,5-a]pyrimidine-3,7-dicarboxamide], for which the IC50 was 5 to 50 µM.

Take `C[C@]1(O)C[C@@H](NC(=O)c2ccnc3c(C(N)=O)cnn23)C1` [Compound 8, N7-(cis-3-hydroxy-3-methyl-cyclobutyl)pyrazolo[1,5-a]pyrimidine-3,7-dicarboxamide]: the half-maximal inhibitory concentration (IC50) was in the range of 5 to 50 µM.

For the compound `N#C[C@H]1C[C@@H](NC(=O)c2ccnc3c(C(N)=O)cnn23)C1` [Compound 9, N7-(cis-3-cyanocyclobutyl)pyrazolo[1,5-a]pyrimidine-3,7-dicarboxamide], the IC50 lay within 0.5 to 5 µM.

Take `CCC1(CC)CC(NC(=O)c2ccnc3c(C(N)=O)cnn23)C1` [Compound 10, N7-(3,3-diethylcyclobutyl)pyrazolo[1,5-a]pyrimidine-3,7-dicarboxamide]: the IC50 was in the range of 50 to 100 µM.

As to `CO[C@H]1C[C@@H](NC(=O)c2ccnc3c(C(N)=O)cnn23)C1` [Compound 11, N7-(cis-3-methoxycyclobutyl)pyrazolo[1,5-a]pyrimidine-3,7-dicarboxamide], the IC50 fell in the range of 5 to 50 µM.

For `NC(=O)c1cnn2c(C(=O)NC3CC4(CCOCC4)C3)ccnc12` [Compound 12, N7-(7-oxaspiro[3.5]nonan-2-yl)pyrazolo[1,5-a]pyrimidine-3,7-dicarboxamide], the IC50 lay within 50 to 100 µM.

As for `NC(=O)c1cnn2c(C(=O)NC3CCc4ccncc4C3)ccnc12` (stereo not shown) [Compound 13, N7-(5,6,7,8-tetrahydroisoquinolin-7-yl)pyrazolo[1,5-a]pyrimidine-3,7-dicarboxamide], the IC50 lay in the range of 50 to 100 µM.

Turning to `NC(=O)c1cnn2c(C(=O)NC3Cc4cccc(CCC(F)(F)F)c4C3)ccnc12` (stereo not shown) [Compound 14, N7-[4-(3,3,3-trifluoropropyl)indan-2-yl]pyrazolo[1,5-a]pyrimidine-3,7-dicarboxamide], the IC50 was 0.5 to 5 µM.

On to `NC(=O)c1cnn2c(C(=O)NC3Cc4cccc(Oc5ccc(Cl)cc5)c4C3)ccnc12` (stereo not shown) [Compound 16, N7-[4-(4-chlorophenoxy)indan-2-yl]pyrazolo[1,5-a]pyrimidine-3,7-dicarboxamide], for which the IC50 lay within 50 to 100 µM.

Turning to `NC(=O)c1cnn2c(C(=O)NC3Cc4cccc(-c5ccccn5)c4C3)ccnc12` (stereo not shown) [Compound 17, N7-[4-(2-pyridyl)indan-2-yl]pyrazolo[1,5-a]pyrimidine-3,7-dicarboxamide], the IC50 lay in the range of 50 to 100 µM.

`NC(=O)c1cnn2c(C(=O)N[C@H]3C[C@@H](OC(F)(F)F)C3)ccnc12` [Compound 18, N7-[cis-3-(trifluoromethoxy)cyclobutyl]pyrazolo[1,5-a]pyrimidine-3,7-dicarboxamide]: the half-maximal inhibitory concentration (IC50) is 0.5 to 5 µM.

On to `NC(=O)c1cnn2c(C(=O)NC3Cc4nccn4C3)ccnc12` (stereo not shown) [Compound 19, N7-(6,7-dihydro-5H-pyrrolo[1,2-a]imidazol-6-yl)pyrazolo[1,5-a]pyrimidine-3,7-dicarboxamide], for which the IC50 fell in the range of 5 to 50 µM.

For the compound `NC(=O)c1cnn2c(C(=O)NC3CNc4ncccc4C3)ccnc12` (stereo not shown) [Compound 20, N7-(1,2,3,4-tetrahydro-1,8-naphthyridin-3-yl)pyrazolo[1,5-a]pyrimidine-3,7-dicarboxamide], the IC50 was 5 to 50 µM.

In the case of `N#Cc1nn2c(C(=O)NC3Cc4ccccc4C3)ccnc2c1C(N)=O` [Compound 21, 2-cyano-N7-indan-2-yl-pyrazolo[1,5-a]pyrimidine-3,7-dicarboxamide], the IC50 fell in the range of 0.05 to 0.5 µM.
